Source: patent US12397059B2, “Compounds and methods for the treatment and prevention of fibrotic disease states and cancer” (Purdue Research Foundation, priority 2019, dated 2025)

Columns and labels:
[1] = tested on: BM-induced experimental pulmonary fibrosis in mice; settings: mouse, in vivo
Procedure: Studies were also performed to determine if macrophages in pulmonary fibrotic lungs might be specifically targeted with folate-linked drugs in vivo. […] (The BM model is widely regarded to be helpful in terms of enabling mechanistic investigations relevant to fibrogenesis in an in vivo context.)
More specifically, eight-week-old C57BL6 male mice from Charles River (average weight 22 g to 25 g) were housed under pathogen-free conditions at room temperature (22° C.) under a 12 hours light-dark cycle. Mice were placed on a folate deficient chow (Envigo Teklad Global Rat Food Pellets) for 1 week prior to the BM or PBS instillation. Fresh water and folate-deficient diet were freely available. All animal procedures were approved by the Purdue Animal Care and Use Committee in accordance with National Institute of Health guidelines.
Thereafter, the mice were anesthetized with ketamine/xylazine and the necks of the mice were shaved using hair remover lotion and then sterilized with 70% alcohol. A small incision was made on the neck to visualize the trachea. Mice were positioned at a 75-degree angle and injected intratracheally with 100 μL sterile PBS or BM (Cayman Chemicals, Ann Arbor, MI; #13877) dissolved in PBS (0.75 mg/kg) using a 1 cc syringe with 26 G needle. Body weights were monitored every other day throughout the experiment.
Lobes of the right lung collected above were weighed, placed in a pressure-tight vial (Supelco Inc., Bellefonte, PA; #27003), and hydrolyzed with 6N HCl (10 ml/g, v/w) in a sand bath at 120° C. for 3.5 hours. The hydrolyzed solution was cooled at 4° C. for 15 min and transferred to a 1.5 ml Eppendorf tube prior to centrifugation at 12,000 rcf for 15 min at 4° C. Supernatant was carefully collected, aliquoted and used for hydroxyproline (HYP) analysis.
For the subsequent HYP analysis, 10 μl of sample was transferred into a 96-well plate and neutralized with 10 μl of 5.3 M sodium hydroxide solution. Isopropanol (40 μl) was then added to each well followed by 20 μl of oxidation buffer and the mixture was incubated on a shaker at room temperature for 5 min. Analytical reagent (260 μl) was added, and the plate was incubated on a shaker at room temperature for 30 seconds and incubated immediately at 60° C. for 25 min. The absorbance was measured at 560 nm (A560) within 15 min. All reagents were prepared according to a previously reported protocol.
For histological analysis of the lung sections, fixed lungs (see above) were embedded in paraffin, sectioned and stained with hematoxylin-eosin (H&E), Masson's trichrome or F3 (anti-mouse FRβ antibody). Tissue sections were examined in a blinded manner by a licensed pathologist. More than 90×10^6 cells were quantified per section using Aperio-Image Scope (Leica Biosystems, Wetzlar, DE).
For this, BM-treated mice were intravenously injected every other day beginning on day 10 with either vehicle (3% DMSO in PBS) or Compound 1B (see FIG. 8A). […] In BM-induced experimental pulmonary fibrosis in mice, inflammation is known to persist for about 9-10 days after BM installation. Because, inflammation to fibrosis switch happens in this model approximately day 9 to day 14, and profibrotic markers start appearing at about day 10, dosing began on day 10 (FIG. 8A).
Two doses were given every other day till day 21. The individual doses on a day are separated by 6 hours to prevent any “tolerance” to TLR agonists. Mice were then sacrificed on day 21 and subjected immediately to bronchoalveolar lavage followed by resection of the lungs for immunohistochemistry and quantitation of collagen and hydroxyproline.

[2] = tested on: M2-induced THP-1 macrophages; assay: Secreted CCL18 and IL-1β in THP-1 supernatants by ELISA; format: cell-based, human; settings: THP-1 cells of FIGS. 14A-14C, low concentration range (0.1-10 nM)
[3] = tested on: THP-1 cells polarized to M2-like macrophages; assay: Reprogramming of M2-like THP-1 macrophages, marker gene analysis by qPCR; format: cell-based, human; settings: M2-induced THP-1, 2 hours, qPCR
Procedure: THP-1 cells were seeded into 96-well plates at a density of 60,000 cells/well. Cells were differentiated into unpolarized macrophages by 48 hours incubation with 200 nM PMA followed by 24 hours incubation in fresh RPMI medium. […] Cultures were maintained at 37° C. in a humidified 5% CO2 incubator.
Total RNA was isolated from 1×10^5 —2×10^5 macrophages using a Quick-RNA™ MicroPrep kit (Zymo Research, Irvine, CA) according to the manufacturer-recommended protocol. […] IL-6, CXCL10, IFNα, IFN-γ and CD86 were used as markers for an M1 phenotype, while CCL18, CD206, CD163 and Arg1 were employed as markers for the M2 phenotype. IL-1β, PDGFβ, MMP9 and TIMP 3 were measured as indicators of a profibrotic phenotype. IRAK-4 was used as an indicator of TLR7 stimulation. To control for specificity of the amplification products, a melting curve analysis was performed. […] Each sample was analyzed independently in triplicate for each marker.
Primarily, human monocytic (THP-1) cells were induced to the M2-like phenotype using the methods and materials previously described. In particular, THP-1 cells were seeded into 96-well plates at a density of 60,000 cells/well. Cells were differentiated into unpolarized macrophages by 48 h incubation with 200 nM PMA followed by 24 hours incubation in fresh RPMI medium. The resulting macrophages were polarized to an M2-like phenotype by incubation with 20 ng/ml IL-4, 20 ng/ml IL-13, and 5 ng/mL IL-6 for 48 h. Cultures were maintained at 37° C. in a humidified 5% CO2 incubator.
In addition to the nonconjugated TLR7 agonist, conjugated compounds of the present disclosure were likewise evaluated. […] The cells were subsequently harvested for gene analysis by qPCR and the relative expression of CCL18 (FIG. 14A), CD206 (FIG. 14B), and IL-1β (FIG. 14C) analyzed.

FRβ = molecular target: T1, FRβ (Mus musculus, UniProt Q05685); settings: in vivo
T1 construct: from tissue; host or cells: major organs (heart, lung, spleen, liver, small intestine, large intestine, kidney) of bleomycin- or PBS-treated C57BL/6 mice; FRβ-expressing lung macrophages
Procedure: FIGS. 7C and 7D show FRβ IHC staining of human IPF lung tissue (FIG. 7C) and healthy human lung tissue (FIG. 7D). […] After 2 hours, mice were sacrificed prior to analysis.

FRβ positive macrophages = settings: mouse, in vivo
Procedure: To evaluate if profibrotic lung macrophages in these mice can be specifically targeted with folate-linked drugs, 10 days after the instillation, 10 nmol (for in vivo imaging) or 100 nmol (for in vivo labeling) of a folate-linked, near infrared fluorescent dye (OTL38) with or without 200-fold excess of FA-glucosamine (a competitor of OTL38) was injected into the tail veins of BM-treated mice and the dye uptake in the major organs was evaluated.
Finally, for the in vivo folate imaging studies, major organs (heart, lung, spleen, liver, small intestine, large intestine, and kidney) were resected and imaged using an AMI live imager (Spectral Instruments Imaging, Tucson, AZ). For in vivo folate receptor labeling studies, lungs of the mice were harvested immediately following euthanasia, digested with a lung dissociation kit (Miltenyi Biotec, Bergisch Gladbach, DE; #130-098-427) as described by gentleMACS Octo Dissociator with Heathers (Miltenyi Biotec, Bergisch Gladbach, DE; #130-096-427) as described by manual and filtered through a 70 μm cell strainer (Miltenyi Biotec, Bergisch Gladbach, DE; #130-098-462). […] Labeled macrophages were then washed twice in PBS, stained with 7AAD (viability stain) for 15 min and analyzed by flow cytometry using BD Accuri C6 Software (BD Biosciences, San Jose, CA). […]

T1 sequence (Q05685 21-227): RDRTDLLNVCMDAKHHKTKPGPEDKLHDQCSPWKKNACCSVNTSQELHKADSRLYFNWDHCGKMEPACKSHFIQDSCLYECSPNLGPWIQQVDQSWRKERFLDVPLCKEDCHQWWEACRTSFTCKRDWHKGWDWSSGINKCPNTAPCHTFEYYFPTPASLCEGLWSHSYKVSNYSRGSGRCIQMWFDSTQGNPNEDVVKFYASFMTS

Molecule | secretion of CCL18 protein [2] | CCL18 relative expression [3] | CD206 relative expression [3] | IL-1β relative expression [3] | effectiveness in reducing profibrotic markers relative to the other compounds [3] | also measured
CCCCc1nc2c(N)nc3ccccc3c2n1CC(C)(C)O [Compound 1A, 1-(4-Amino-2-butyl-1H-imidazo[4,5-c]quinolin-1-yl)-2-methylpropan-2-ol] |  |  |  |  |  | body weight change [1]: rapid body weight loss followed by death
Nc1nc(C(F)(F)F)cc2c1[nH]c(=O)n2Cc1ccc(NCCN2CCCC(CO)C2)nc1 (centres unmarked) [Compound 3A] | downregulated |  |  |  |  | 
Nc1nc2ncc(CNc3ccc(C(=O)NC(CCC(=O)N[C@@H](CSSCCOC(=O)OCC4CCCN(CCNc5ccc(Cn6c(=O)[nH]c7c(N)nc(C(F)(F)F)cc76)cn5)C4)C(=O)O)C(=O)O)cc3)nc2c(=O)[nH]1 (some centres unmarked) [Compound 3B] | downregulated | reduced | reduced | reduced |  | 
Nc1nc2ncc(CNc3ccc(C(=O)N[C@@H](CCC(=O)NCCOCCOCCOCCOCCOCCOCCOCCOCCOCCOCCOCCOCCOCC4CCCN(CCNc5ccc(Cn6c(=O)[nH]c7c(N)nc(C(F)(F)F)cc76)cn5)C4)C(=O)O)cc3)nc2c(=O)[nH]1 (some centres unmarked) [Compound 3C] | downregulated | reduced | reduced | reduced | most effective relative to the other compounds | benefit to the subject mice [1]: did not show measurable benefit; hydroxyproline (HP) [1]: decreasing; number of BALF cells [1]: decreasing; survival rates [1]: increased the survival rates
Nc1nc2ncc(CNc3ccc(C(=O)N[C@@H](CCC(=O)NCCOCCOCCOCCOCC4CCCN(CCNc5ccc(Cn6c(=O)[nH]c7c(N)nc(C(F)(F)F)cc76)cn5)C4)C(=O)O)cc3)nc2c(=O)[nH]1 (some centres unmarked) [Compound 3D] | downregulated | reduced | reduced | reduced | most effective relative to the other compounds | 
OTL38 |  |  |  |  |  | OTL38 fluorescence in organs of healthy mice (FRβ): only observed in the kidneys; lung accumulation with 200-fold excess folate-glucosamine (FRβ): nearly quantitative blockade of lung accumulation; folate-dye retention with 200-fold excess folate-glucosamine (FRβ positive macrophages): blocked essentially all folate-dye retention
